Laboratory results from patent US7968591B2, “1,3-disubstituted 4-methyl-1H-pyrrole-2-carboxamides and their use in medicaments” (Gruenenthal GmbH, priority 2006, dated 2011).

Test system: batrachotoxin (BTX) binding site of the sodium channel
Test: Affinity for the batrachotoxin (BTX) binding site of the sodium channel
Details: rat cerebrocortex synaptosomes, [3H]-Batrachotoxinin A20α benzoate 10 nM

SMILES	BTX (Na+ channel) (% inhibition at 10 μM) [%]
COc1ccc(-c2c(C)cn(Cc3ccc(F)cc3)c2C(=O)NCCc2cccs2)cc1 [Example 35, 1-(4-fluorobenzyl)-3-(4-methoxyphenyl)-4-methyl-1H-pyrrole-2-carboxylic acid (2-thiophen-2-ylethyl)-amide]	48
Cc1cn(Cc2ccc(C(F)(F)F)cc2)c(C(=O)NCCN2CCCC2)c1-c1ccco1 [Example 38, 3-furan-2-yl-4-methyl-1-(4-trifluoromethylbenzyl)-1H-pyrrole-2-carboxylic acid (2-pyrrolidin-1-ylethyl)-amide]	94
COc1ccc(Cn2cc(C)c(-c3ccc(C)cc3)c2C(=O)N(C)CC(=O)OCc2ccccc2)cc1 [Example 39, {[1-(4-methoxybenzyl)-4-methyl-3-p-tolyl-1H-pyrrole-2-carbonyl]-methylamino}-acetic acid benzyl ester]	74
COc1ccc(Cn2cc(C)c(-c3ccco3)c2C(=O)NCCC2CCCN2C)cc1 (stereo not drawn) [Example 40, 3-furan-2-yl-1-(4-methoxybenzyl)-4-methyl-1H-pyrrole-2-carboxylic acid [2-(1-methylpyrrolidin-2-yl)-ethyl]-amide]	81
CCOc1ccc(Br)cc1CN1CCN(C(=O)c2c(-c3ccccc3)c(C)cn2C)CC1 [Example 41, [4-(5-bromo-2-ethoxybenzyl)-piperazin-1-yl]-(1,4-dimethyl-3-phenyl-1H-pyrrol-2-yl)-methanone]	77
COc1ccc(CN2CCN(C(=O)c3c(-c4ccco4)c(C)cn3Cc3ccccc3)CC2)cc1F [Example 42, (1-benzyl-3-furan-2-yl-4-methyl-1H-pyrrol-2-yl)-[4-(3-fluoro-4-methoxybenzyl)-piperazin-1-yl]-methanone]	88
CCn1cc(C)c(-c2ccc(Cl)cc2)c1C(=O)NCCC(=O)OC(C)(C)C [Example 43, 3-{[3-(4-chlorophenyl)-1-ethyl-4-methyl-1H-pyrrole-2-carbonyl]-amino}-propionic acid tert.-butyl ester]	31
COc1cccc(CNC(=O)c2c(-c3ccccc3)c(C)cn2Cc2ccccc2)c1 [Example 44, 1-benzyl-4-methyl-3-phenyl-1H-pyrrole-2-carboxylic acid 3-methoxybenzylamide]	47
CCOc1ccc(Br)cc1CN1CCN(C(=O)c2c(-c3ccco3)c(C)cn2Cc2ccccc2)CC1 [Example 45, (1-benzyl-3-furan-2-yl-4-methyl-1H-pyrrol-2-yl)-[4-(5-bromo-2-ethoxybenzyl)-piperazin-1-yl]-methanone]	89
Cc1ccccc1N1CCN(C(=O)c2c(-c3ccc(Cl)cc3)c(C)cn2C)CC1 [Example 46, [3-(4-chlorophenyl)-1,4-dimethyl-1H-pyrrol-2-yl]-(4-o-tolylpiperazin-1-yl)-methanone]	55
CCOc1ccc(CCNC(=O)c2c(-c3ccc(OC)cc3)c(C)cn2Cc2ccc(F)cc2)cc1 [Example 47, 1-(4-fluorobenzyl)-3-(4-methoxyphenyl)-4-methyl-1H-pyrrole-2-carboxylic acid [2-(4-ethoxyphenyl)-ethyl]-amide]	55
Cc1ccc(-c2c(C)cn(Cc3c(Cl)cccc3Cl)c2C(=O)N2CCC(O)CC2)cc1 [Example 48, [1-(2,6-dichlorobenzyl)-4-methyl-3-p-tolyl-1H-pyrrol-2-yl]-(4-hydroxypiperidin-1-yl)-methanone]	36
COc1cc(OC)c(CN2CCN(C(=O)c3c(-c4ccc(C)cc4)c(C)cn3C)CC2)c(OC)c1 [Example 49, (1,4-dimethyl-3-p-tolyl-1H-pyrrol-2-yl)-[4-(2,4,6-trimethoxybenzyl)-piperazin-1-yl]-methanone]	89
Cc1cn(Cc2ccc(F)cc2)c(C(=O)NCCN2CCOCC2)c1-c1ccco1 [Example 50, 1-(4-fluorobenzyl)-3-furan-2-yl-4-methyl-1H-pyrrole-2-carboxylic acid (2-morpholin-4-ylethyl)-amide]	77
Cc1cn(Cc2ccccc2)c(C(=O)NCCc2ccc(F)cc2)c1-c1ccc(Cl)cc1 [Example 51, 1-benzyl-3-(4-chlorophenyl)-4-methyl-1H-pyrrole-2-carboxylic acid [2-(4-fluorophenyl)-ethyl]-amide]	43
COc1ccc(-c2c(C)cn(C)c2C(=O)N2CCN(c3cc(C)ccc3C)CC2)cc1 [Example 52, [4-(2,5-dimethylphenyl)-piperazin-1-yl]-[3-(4-methoxyphenyl)-1,4-dimethyl-1H-pyrrol-2-yl]-methanone]	76
COc1ccc(-c2c(C)cn(C)c2C(=O)NCCCn2ccnc2)cc1 [Example 53, 3-(4-methoxyphenyl)-1,4-dimethyl-1H-pyrrole-2-carboxylic acid (3-imidazol-1-ylpropyl)-amide]	44
COc1ccc(-c2c(C)cn(Cc3ccc(F)cc3)c2C(=O)NCCc2cccc(C(F)(F)F)c2)cc1 [Example 54, 1-(4-fluorobenzyl)-3-(4-methoxyphenyl)-4-methyl-1H-pyrrole-2-carboxylic acid [2-(3-trifluoromethylphenyl)-ethyl]-amide]	42
Cc1cnc(C(=O)N2CCN(C(=O)c3c(-c4ccc(Cl)cc4)c(C)cn3Cc3ccccc3F)CC2)cn1 [Example 55, [3-(4-chlorophenyl)-1-(2-fluorobenzyl)-4-methyl-1H-pyrrol-2-yl]-[4-(5-methylpyrazin-2-carbonyl)-piperazin-1-yl]-methanone]	44
Cc1cn(C)c(C(=O)N2CCN(c3ccncc3)CC2)c1-c1ccc(Cl)cc1 [Example 57, [3-(4-chlorophenyl)-1,4-dimethyl-1H-pyrrol-2-yl]-(4-pyridin-4-ylpiperazin-1-yl)-methanone]	76
Cc1cn(Cc2ccccc2F)c(C(=O)NCCCn2ccnc2)c1-c1ccc(Cl)cc1 [Example 58, 3-(4-chlorophenyl)-1-(2-fluorobenzyl)-4-methyl-1H-pyrrole-2-carboxylic acid (3-imidazol-1-ylpropyl)-amide]	93
COc1ccc(CN2CCN(C(=O)c3c(-c4ccccc4)c(C)cn3C)CC2)cc1F [Example 59, (1,4-dimethyl-3-phenyl-1H-pyrrol-2-yl)-[4-(3-fluoro-4-methoxybenzyl)-piperazin-1-yl]-methanone]	75
Cc1cn(C)c(C(=O)N2CCN(C3CCCCCC3)CC2)c1-c1ccco1 [Example 61, (4-cycloheptylpiperazin-1-yl)-(3-furan-2-yl-1,4-dimethyl-1H-pyrrol-2-yl)-methanone]	64
COc1ccc(OCCNC(=O)c2c(-c3ccccc3)c(C)cn2Cc2ccccc2)cc1 [Example 62, 1-benzyl-4-methyl-3-phenyl-1H-pyrrole-2-carboxylic acid [2-(4-methoxyphenoxy)-ethyl]-amide]	50
